Laboratory results: patent US4584293A, “Aminotetralin derivatives” (Dr. Karl Thomae GmbH, priority 1984, dated 1986)
Structures can show the parent of a compound that is named as a salt.

Key:
Format in all cases: in vivo
heart rate [1] = assay: Effect on heart rate in rats (anesthetized, i.v.); conditions: 5.0 mg/kg into jugular vein, pentobarbital-anesthetized rats
Description: The effect of the test substances on heart rate is tested in rats (two) with an average weight of from 250 to 300 g for each dose. The rats are anesthetized with pentobarbital (50 mg/kg i.p. and 20 mg/kg s.c.). The test substances are injected in aqueous solution into the jugular vein (0.1 ml/100 g). The blood pressure is measured using a canula tied into a carotid artery and heart rate was recorded from an ECG (II or III derivation) obtained with needle electrodes. The heart rate of the animals in the control period is between 350 and 400 beats per minute (b/min).

heart rate [2] = assay: Effect on heart rate in cats (anesthetised, i.v.); conditions: chloralose-anesthetised cats
Description: The effect of the test substances on heart rate is tested on cats (seven) of both sexes with an average weight of from 2.5 to 3.5 kg for each dose. The cats are anesthetised with chloralose (80 mg/kg). The test substance is injected in aqueous solution into the vena saphena. The heart rate is recorded before and after administration of the substance using a Grass tachograph from the electrocardiogram (electrode attached to the chest wall) on a Grass polygraph.

[3] = Toxic side effects in mice after intravenous administration; conditions: administered intravenously, 20 mg/kg in mice
Source text: The compounds prepared according to the invention have no toxic side effects in therapeutic doses. […] In view of their pharmacological properties the compounds according to the invention are suitable for the treatment of sinus tachycardia of various origins and for the prophylaxis and therapy of ischaemic heart diseases.

COc1cc2c(cc1OC)CC(=O)N(CCCN(C)C1CCc3cc(OC)c(OC)cc3C1)CC2.Cl (stereo not drawn) [Substance A, 1-[7,8-Dimethoxy-1,3,4,5-tetrahydro-2H-3-benzazepin-2-on-3-yl]-3-[N-methyl-N-(6,7-dimethoxy-1,2,3,4-tetrahydronaphth-2-yl)-amino]-propane hydrochloride]
Lowering of heart rate measured 20 minutes after administration of substance (heart rate [1]): -176 b/min | Half life (heart rate [2]; 0.3 mg/kg i.v.): > 2 h | Lowering of heart rate (heart rate [2]; 0.3 mg/kg i.v.): -30% | Half life (heart rate [2]; 1.0 mg/kg i.v.): > 2 h | Lowering of heart rate (heart rate [2]; 1.0 mg/kg i.v.): -58% | toxic side effects [3]: no toxic side effects apart from slight sedation

COc1cc2c(cc1OC)CC(=O)N(CCCNC1CCc3cc(OC)c(OC)cc3C1)CC2.Cl (stereo not drawn) [Substance B, 1-[7,8-Dimethoxy-1,3,4,5-tetrahydro-2H-3-benzazepin-2-on-3-yl]-3-[N-(6,7-dimethoxy-1,2,3,4-tetrahydronaphth-2-yl)-amino]-propane hydrochloride]
Lowering of heart rate measured 20 minutes after administration of substance (heart rate [1]): -203 b/min | Half life (heart rate [2]; 1.0 mg/kg i.v.): > 2 h | Lowering of heart rate (heart rate [2]; 1.0 mg/kg i.v.): -55% | toxic side effects [3]: no toxic side effects apart from slight sedation

COc1ccc2c(c1)CC(N(C)CCCN1CCc3cc(OC)c(OC)cc3CC1=O)CC2 (stereo not drawn) [Substance C, 1-7,8-Dimethoxy-1,3,4,5-tetrahydro-2H-3-benzazepin-2-on-3-yl]-3-[N-methyl-N-(7-methoxy-1,2,3,4-tetrahydronaphth-2-yl)-amino]-propane hydrochloride]
Lowering of heart rate measured 20 minutes after administration of substance (heart rate [1]): -184 b/min

COc1ccc2c(c1)CCC(N(C)CCCN1CCc3cc(OC)c(OC)cc3CC1=O)C2.Cl (stereo not drawn) [Substance D, 1-[7,8-Dimethoxy-1,3,4,5-tetrahydro-2H-3-benzazepin-2-on-3-yl]-3-[N-methyl-N-(6-methoxy-1,2,3,4-tetrahydronaphth-2-yl)-amino]-propane hydrochloride]
Lowering of heart rate measured 20 minutes after administration of substance (heart rate [1]): -165 b/min
